Measured values as given in US12559474B2, “Triazine derivatives having virus replication inhibitory activity and pharmaceutical composition comprising the same” (priority 2021, dated 2026).
“And” between values parts separate entries of the source, which are not always exact repeats. Identical values can stand only once. Like-named read-outs stand apart in the source and are kept apart here.

Biological target: SARS-CoV-2 3CL protease (Severe acute respiratory syndrome coronavirus 2, UniProt P0DTD1)
Assay: biochemical

Row | Compound | IC50 (IC50) | IC50 (50% SARS-CoV-2 3CL protease inhibitory concentration, RapidFire MS, read-out: IC50)
1 | Cn1cc2cc(Nc3nc(=O)n(-c4cnc5ccccn45)c(=O)n3Cc3ccc(F)c(C#N)c3)c(Cl)cc2n1 [II-0488] | < 100 nM | 
2 | Cc1cc(C)nc(NC23CC(Nc4nc(=O)n(Cc5ccc[nH]c5=O)c(=O)n4Cc4cc(F)c(F)c(F)c4)(C2)C3)n1 [II-0627] | < 100 nM | 
3 | C[C@H](Nc1nc(=O)n(Cc2ccc[nH]c2=O)c(=O)n1Cc1cc(F)c(F)c(F)c1)c1ccccc1 [II-0230] | 550 nM | 
4 | COc1ccc(Nc2nc(=O)n(Cc3ccc[nH]c3=O)c(=O)n2C2CCc3cc(F)c(F)cc32)cc1 (racemic) [Compound I-0258] | 3500 nM and 1000 to 10000 nM | 
5 | Cn1cnc(Cn2c(=O)nc(Nc3cc4cn(CC(F)F)nc4cc3F)n(Cc3ccc(F)c(C#N)c3)c2=O)n1 [II-0471] | < 100 nM | 
6 | CC(=O)NCCn1cc2cc(Nc3nc(=O)n(Cc4cc(Cl)c[nH]c4=O)c(=O)n3Cc3cc(F)c(F)c(F)c3)c(Cl)cc2n1 [Compound I-0453] | < 100 nM | 
7 | Cn1cc2cc(Nc3nc(=O)n(Cc4cc(F)c[nH]c4=O)c(=O)n3Cc3ccc(F)c(C#N)c3)c(Cl)cc2n1 [Compound I-0270] | < 100 nM | 
8 | Cc1cncc(-n2c(=O)nc(Nc3cc4sc(NS(C)(=O)=O)nc4cc3Cl)n(Cc3ccc(F)c(C#N)c3)c2=O)c1 [II-0427] | < 100 nM | 
9 | O=c1[nH]cccc1Cn1c(=O)nc(Nc2ccc(OCCO)cc2Cl)n(Cc2cc(F)c(F)c(F)c2)c1=O [Compound I-0371] | < 100 nM | 
10 | CC(=O)Nc1nc2cc(Cl)c(Nc3nc(=O)n(Cc4ncn(C)n4)c(=O)n3Cc3cc(F)c(F)c(F)c3)cc2s1 [II-0310] | < 100 nM | 
11 | COc1cc(N=S(C)(C)=O)ccc1Nc1nc(=O)n(-c2cncc(C)c2)c(=O)n1Cc1cc(Cl)ccc1C [II-0633] | < 100 nM | 
12 | CN(C(=O)Cn1cc2cc(Nc3nc(=O)n(Cc4ncn(C)n4)c(=O)n3Cc3cc(F)c(F)c(Cl)c3)c(Cl)cc2n1)C1CC1 [II-0155] | < 100 nM | 
13 | O=c1[nH]cccc1Cn1c(=O)nc(Nc2cc3cn(CC4(CO)COC4)nc3cc2Cl)n(Cc2cc(F)c(F)c(F)c2)c1=O [Compound I-0469] | < 100 nM | 
14 | COCCN(C)C(=O)Cn1cc2cc(Nc3nc(=O)n(Cc4ncn(C)n4)c(=O)n3Cc3cc(F)c(F)c(Cl)c3)c(Cl)cc2n1 [II-0141] | < 100 nM | 
15 | Cc1cncc(-n2c(=O)nc(Nc3ccc(N=S(C)(C)=O)cc3C)n(Cc3cc(Cl)ccc3C)c2=O)c1 [II-0631] | < 100 nM | 
16 | Cc1cncc(-n2c(=O)nc(Nc3ccc(N=S4(=O)CCCC4)cc3C(F)(F)F)n(Cc3cc(Cl)ccc3C)c2=O)c1 [II-0614] | < 100 nM | 
17 | Cc1cncc(-n2c(=O)nc(Nc3cc4cn(C)nc4cc3Cl)n(C[C@@H]3CCCN3)c2=O)c1 [II-0085] |  | 9200 nM
18 | CC(=O)Nc1nc2cc(F)c(Nc3nc(=O)n(Cc4ncn(C)n4)c(=O)n3Cc3cc(F)c(F)c(Cl)c3)cc2s1 [II-0012] | < 100 nM | 
19 | Cc1cncc(-n2c(=O)nc(Nc3cc4cn(C)nc4cc3Cl)n(Cc3nc(Cl)c(Cl)n3C)c2=O)c1 [II-0021] | 3600 nM | 
20 | Cc1nc2cc(Cl)c(Nc3nc(=O)n(Cc4ccc[nH]c4=O)c(=O)n3Cc3cc(F)c(F)c(F)c3)cn2n1 [Compound I-0442] | < 100 nM | 
21 | COc1ccc(Cc2nc(=O)n(Cc3ccc[nH]c3=O)c(=O)n2Cc2cc(F)c(F)c(F)c2)cc1 [II-0327] | 1500 nM | 
22 | CN(C)C(=O)Cn1cc2cc(Nc3nc(=O)n(Cc4ncn(C)n4)c(=O)n3Cc3cc(F)c(F)c(Cl)c3)c(Cl)cc2n1 [II-0277] | < 100 nM | 
23 | COc1ccc(Nc2nc(=O)n(Cc3ccc[nH]c3=O)c(=O)n2C2CCCc3cc(F)c(F)cc32)cc1 (racemic) [Compound I-0257] | 2900 nM | 
24 | Cn1cnc(Cn2c(=O)nc(Nc3cc4cn(CC(=O)O)nc4cc3Cl)n(Cc3cc(Cl)c(F)cc3F)c2=O)n1 [II-0319] | < 100 nM | 

Row | Compound | IC50 (IC50) | IC50 (50% SARS-CoV-2 3CL protease inhibitory concentration, RapidFire MS, read-out: IC50)
25 | Cc1c[nH]nc1[C@@H]1C[C@H]1Nc1nc(=O)n(Cc2ccc[nH]c2=O)c(=O)n1Cc1cc(F)c(F)c(F)c1 (racemic) [II-0373] | 430 nM | 
26 | CC(=O)Nc1nc2cc(Cl)c(Nc3nc(=O)n(Cc4ncn(C)n4)c(=O)n3Cc3ccc(F)c(C#N)c3)cc2s1 [II-0083] | < 100 nM | 
27 | Cc1nc2cc(Cl)c(Nc3nc(=O)n(Cc4c[nH]c(=O)[nH]c4=O)c(=O)n3Cc3cc(F)c(F)c(F)c3)cc2n1C [Compound I-0407] | < 100 nM | 
28 | Cc1cncc(-n2c(=O)nc(Nc3ccc(N=S4(=O)CCCC4)c(Cl)c3Cl)n(Cc3cc(Cl)ccc3C)c2=O)c1 [II-0617] | < 100 nM | 
29 | Cc1cncc(-n2c(=O)nc(Nc3cc4c(=O)n(C)cnc4cc3Cl)n(Cc3ccc(F)c(C#N)c3)c2=O)c1 [II-0467] | < 100 nM | 
30 | Cn1cnc(Cn2c(=O)nc(Nc3cc4cn(C5CCNCC5)nc4cc3Cl)n(Cc3cc(Cl)c(F)cc3F)c2=O)n1 [II-0532] | < 100 nM | 
31 | Cn1cnc(Cn2c(=O)nc(Nc3cc4cn(CC(=O)N5CCOCC5)nc4cc3Cl)n(Cc3cc(F)c(F)c(Cl)c3)c2=O)n1 [II-0139] | < 100 nM | 
32 | Cn1cnc(Cn2c(=O)nc(Nc3cc4cn(CC(=O)N5CC(F)(F)C5)nc4cc3Cl)n(Cc3cc(F)c(F)c(Cl)c3)c2=O)n1 [II-0143] | < 100 nM | 
33 | Cn1cnc(Cn2c(=O)nc(Nc3cc4cn(C)nc4cc3Cl)n(Cc3cc(F)cc4c3OCOC4)c2=O)n1 [II-0211] | < 100 nM | 
34 | Cn1cnc(Cn2c(=O)nc(NC34CC(Nc5ncccn5)(C3)C4)n(Cc3cc(F)c(F)c(F)c3)c2=O)n1 [II-0474] | < 100 nM | 
35 | CN(C)C(=O)Cn1cc2cc(Nc3nc(=O)n(Cc4ncn(C)n4)c(=O)n3Cc3cc(F)c(F)cc3F)c(Cl)cc2n1 [II-0280] | < 100 nM | 
36 | CN1CC[C@H](n2cc3cc(Nc4nc(=O)n(Cc5ncn(C)n5)c(=O)n4Cc4cc(F)c(F)c(Cl)c4)c(Cl)cc3n2)C1=O [II-0451] | < 100 nM | 
37 | Cc1nc2cc(Cl)c(Nc3nc(=O)n(Cc4ncn(C)n4)c(=O)n3Cc3cc(F)c(F)cc3F)cc2n1C [II-0019] | < 100 nM | 
38 | COc1ccc(Nc2nc(=O)n(Cc3cc(-c4cnn(C)c4)c[nH]c3=O)c(=O)n2Cc2cc(F)c(F)c(F)c2)cc1 [Compound I-0259] | < 100 nM | 
39 | COCCn1c(C)nc2cc(Cl)c(Nc3nc(=O)n(Cc4ccc[nH]c4=O)c(=O)n3Cc3cc(F)c(F)c(F)c3)cc21 [Compound I-0443] | < 100 nM | 
40 | O=c1[nH]cccc1Cn1c(=O)nc(NC23CC(Nc4ncc(C5CC5)cn4)(C2)C3)n(Cc2cc(F)c(F)c(F)c2)c1=O [II-0445] | < 100 nM | 
41 | COc1cc(OC)nc(NC23CC(Nc4nc(=O)n(CC5=CC=CNC5C)c(=O)n4Cc4cc(F)c(F)c(F)c4)(C2)C3)n1 (stereo not drawn) [II-0626] | < 100 nM | 
42 | COc1ccc(Nc2nc(=O)n(Cc3c[nH]c(=O)[nH]c3=O)c(=O)n2Cc2cc(F)c(F)c(F)c2)cc1 [Compound I-0099] | < 100 nM | 
43 | Cc1cncc(-n2c(=O)nc(Nc3cc4cn([C@H]5CC[C@H](N)CC5)nc4cc3Cl)n(Cc3cc(Cl)ccc3Cl)c2=O)c1 [II-0628] | < 100 nM | 
44 | CS(=O)(=O)CCCn1cc2cc(Nc3nc(=O)n(Cc4ccc[nH]c4=O)c(=O)n3Cc3cc(F)c(F)c(F)c3)c(Cl)cc2n1 [Compound I-0287] | < 100 nM | 
45 | CN(C)C(=O)CCn1cc2cc(Nc3nc(=O)n(Cc4ncn(C)n4)c(=O)n3Cc3cc(Cl)c(F)cc3F)c(Cl)cc2n1 [II-0338] | < 100 nM | 
46 | Cn1cnc(Cn2c(=O)nc(Nc3cc4cn(CC(=O)NC5CC5)nc4cc3Cl)n(Cc3cc(F)c(F)c(Cl)c3)c2=O)n1 [II-0152] | < 100 nM | 
47 | Cn1cnc(Cn2c(=O)nc(Nc3cc4cn(CC(=O)N5CCCC5)nc4cc3Cl)n(Cc3cc(F)c(F)c(Cl)c3)c2=O)n1 [II-0147] | < 100 nM | 
48 | Cn1cnc(Cn2c(=O)nc(Nc3cc4cn(CCN)nc4cc3Cl)n(Cc3cc(Cl)c(F)cc3F)c2=O)n1 [II-0530] | < 100 nM | 
